According to patent US20090081197A1 (Palatin Technologies, Inc., priority 2007, published 2009):
Where two headings read alike, the source gives them in different places. Positions of bridges follow the written chain, without caps; N, C: chain ends. Non-standard residues stand in square brackets, D forms with d. Residues, ends and D or L forms follow the SMILES beside them. *: point of attachment. Acetyl(2-naphthyl) = O=C(Cc1ccc2ccccc2c1)*; dPhe(4-Cl) = N[C@H](Cc1ccc(Cl)cc1)C(=O)O; 1Nal = N[C@@H](Cc1cccc2ccccc12)C(=O)O; 2Nal = N[C@@H](Cc1ccc2ccccc2c1)C(=O)O; d2Nal = N[C@H](Cc1ccc2ccccc2c1)C(=O)O; Ac6c = NC1(C(=O)O)CCCCC1; Nle = CCCC[C@H](N)C(=O)O

How the values were obtained:
MC4-R [1] = target: T1, MC4-R (Homo sapiens, UniProt P32245); assay: cAMP agonist stimulation, high receptor density system (10 ng/mL doxycycline)
[2] = ICV food intake and body weight change; format: in vivo; conditions: rat, 1 nmol, 24 hours
Protocol: ICV food intake and body weight change. Change in food intake and body weight was evaluated for selected compounds. Rats with indwelling intracerebroventricular cannulas (ICV rats) were obtained from Hilltop Lab Animals, Inc. (Scottdale, Pa.). Animals were individually housed in conventional plexiglass hanging cages and maintained on a controlled 12 hour on/off light cycle. Water and powdered (LabDiet, 5P00 Prolab RMH 3000) or pelleted (Harlan Teklad 2018 18% Protein Rodent Diet) food was provided ad libitum. For 1 week before treatment, 24-hour food intake and body weight change was recorded to assess a baseline for the group during vehicle treatment. The rats were dosed ICV with vehicle or selected compounds (1-3 nmol). The changes in body weight and food intake for the 24 hour period after dosing were determined. The changes in body weight and food intake for the 48 hour and 72 hour periods after dosing were also measured to determine reversal of changes in body weight and food intake effects back to baseline levels.

MC4-R [3] = target: T1, MC4-R; assay: cAMP functional activity assay in HEK-293 cells, normal system; format: cell-based; set-up: expressed in transfected cells; host or cells: HEK-293
Protocol: General method for EC50 determination in functional activity assay. […] Data analysis and EC50 values were determined using nonlinear regression analysis with Prism Graph-Pad software.
Functional status. The agonist/antagonist status with respect to MC1-R, MC-3R, MC4-R and MC5-R of certain compounds of the invention was determined. Antagonistic activity was determined by measuring the inhibition of α-MSH-induced or NDP-α-MSH-induced cAMP levels following exposure to graded doses of compounds as in the preceding descriptions.
Assay for agonist. Evaluation of the molecules to elicit a functional response in HEK-293 cells expressing MC4-R was accomplished by measuring the accumulation of intracellular cAMP following treatment. Confluent HEK-293 cells expressing MC4-R receptors were detached by enzyme free cell suspension buffer. […] The cells were plated in a 96 well plates at a density of 0.5×10^5 cells per well and pre-incubated for 30 minutes. Test compounds (dissolved in dimethylsulfoxide (DMSO) at a concentration range of 0.05-5000 nM) were added in a total assay volume of 200 μL and cells were incubated for 1 hour at 37° C. The concentration of DMSO was always held at 1% in the assay mixture. NDP-α-MSH was used as the reference agonist. […] Data analysis and EC50 values were determined by using nonlinear regression analysis with Prism Graph-Pad software. […] Compounds with a response ratio of less than 0.1 (10%) were evaluated for antagonistic activity.

MC4-R [4] = target: T1, MC4-R; assay: cAMP agonist stimulation, low receptor density system (0.1 ng/mL doxycycline)
MC1-R = target: T2, MC1-R (Mus musculus, UniProt Q01727); assay: Competitive inhibition assay using [I^125]-NDP-α-MSH, B-16 mouse melanoma cell membranes; format: binding; conditions: read-out: Inhibition at 1 μM (NDP-α-MSH) In Normal System, MC1-R
T2 construct: B-16 mouse melanoma cells (containing MC1-R); endogenous in cells
Protocol: (§1) The ligand concentration used was 0.4 nM for MC3-R and MC5-R, 0.2 nM for MC4-R and 0.1 nM for B16-F10 (MC1-R) membranes. In certain experiments, hMC1-R was also employed.
(§2) The assay mixture was incubated for 90 minutes at room temperature, then filtered and the membranes washed three times with ice cold buffer. The filter was dried and counted in a gamma counter for remaining radioactivity bound to the membranes. […] Each assay was conducted in triplicate and the actual mean values are described, with results less than 0% reported as 0%.

MC3-R = MC3-R (Homo sapiens, UniProt P41968); assay: Competitive inhibition assay using [I^125]-NDP-α-MSH, hMC3-R membranes; format: binding; set-up: expressed in transfected cells; conditions: read-out: Inhibition at 1 μM (NDP-α-MSH) In Normal System, MC3-R
Protocol: as §1, §2

MC5-R = MC5-R (Homo sapiens, UniProt P33032); assay: Competitive inhibition assay using [I^125]-NDP-α-MSH, hMC5-R membranes; format: binding; set-up: expressed in transfected cells; conditions: for inhibition at 1 µM: read-out: Inhibition at 1 μM (NDP-α-MSH) In Normal System, MC5-R
Protocol: as §1, §2

MC4-R [5] = target: T1, MC4-R; assay: Competitive inhibition assay using [I^125]-NDP-α-MSH, hMC4-R membranes; format: binding; set-up: host or cells: TREx-293 (HEK-293 stably expressing Tet repressor); conditions: for inhibition at 1 µM: read-out: Inhibition at 1 μM (NDP-α-MSH) In Normal System, MC4-R; for Ki: read-out: Ki (nM) (NDP-α-MSH) In Normal System, MC4-R
Protocol: as §1, §2

[6] = Penile erection induction in male rats; format: in vivo; conditions: rat
Protocol: Penile erection induction. The ability of compounds to induce penile erection (PE) in male rats was evaluated with selected compounds. Male Sprague-Dawley rats weighing 200-250 g were kept on a 12 hour on/off light cycle with food and water ad libitum. All behavioral studies were performed between 10 A.M. and 5 P.M. Groups of 4-8 rats were treated with compounds at a variety of doses via intravenous (IV) or intracerebroventricular (ICV) routes. Immediately after treatment, rats were placed into individual polystyrene cages (27 cm long, 16 cm wide, and 25 cm high) for behavioral observation. […] Controls utilized carrier without the test compound. Mean PEs in control groups were 0.17 to 0.5 PEs/rat by IV administration in various experiments and between 1-2 PEs/rat by ICV administration in various experiments, and thus only PEs with statistically relevant increases over the mean PEs in control groups are reported as inducing PEs. A PE response in IV animals greater than the mean PEs in control groups but less than 1.0 PEs/rat, particularly with less than all animals responding, was treated as equivocal, and not necessarily distinguishable from vehicle control. In selected instances, compounds with equivocal results in the IV model were tested for penile response in an ICV model, and compounds without a statistically relevant increase over the mean PEs in ICV control groups were determined to not induce PEs.

T2 sequence (Q01727 whole entry): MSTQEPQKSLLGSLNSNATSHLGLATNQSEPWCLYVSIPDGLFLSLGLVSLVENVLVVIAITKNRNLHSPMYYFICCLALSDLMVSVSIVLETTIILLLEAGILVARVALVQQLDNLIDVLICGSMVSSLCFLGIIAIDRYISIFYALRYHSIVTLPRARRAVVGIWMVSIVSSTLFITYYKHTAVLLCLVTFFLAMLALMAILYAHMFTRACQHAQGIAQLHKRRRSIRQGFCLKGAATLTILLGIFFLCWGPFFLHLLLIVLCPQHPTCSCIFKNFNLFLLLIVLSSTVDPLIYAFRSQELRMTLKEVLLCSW
T1 sequence (P32245 whole entry): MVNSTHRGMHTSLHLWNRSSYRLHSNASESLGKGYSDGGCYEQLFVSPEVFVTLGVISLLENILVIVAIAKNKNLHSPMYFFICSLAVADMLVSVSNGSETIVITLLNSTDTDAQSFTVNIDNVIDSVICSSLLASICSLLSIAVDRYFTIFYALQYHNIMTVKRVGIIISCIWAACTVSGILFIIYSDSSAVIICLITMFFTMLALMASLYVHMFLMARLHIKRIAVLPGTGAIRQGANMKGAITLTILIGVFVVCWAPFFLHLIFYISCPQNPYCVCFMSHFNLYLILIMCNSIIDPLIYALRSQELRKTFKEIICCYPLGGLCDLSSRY
Chain of MC3-R (P41968 whole entry): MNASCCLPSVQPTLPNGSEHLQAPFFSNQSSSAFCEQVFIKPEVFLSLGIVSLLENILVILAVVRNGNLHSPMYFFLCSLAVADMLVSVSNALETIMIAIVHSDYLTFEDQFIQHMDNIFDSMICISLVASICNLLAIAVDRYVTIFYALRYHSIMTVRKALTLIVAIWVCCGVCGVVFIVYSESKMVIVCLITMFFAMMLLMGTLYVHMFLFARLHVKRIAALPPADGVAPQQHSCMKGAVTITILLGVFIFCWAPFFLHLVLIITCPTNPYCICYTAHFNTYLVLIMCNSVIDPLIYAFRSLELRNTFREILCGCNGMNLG
Chain of MC5-R (P33032 whole entry): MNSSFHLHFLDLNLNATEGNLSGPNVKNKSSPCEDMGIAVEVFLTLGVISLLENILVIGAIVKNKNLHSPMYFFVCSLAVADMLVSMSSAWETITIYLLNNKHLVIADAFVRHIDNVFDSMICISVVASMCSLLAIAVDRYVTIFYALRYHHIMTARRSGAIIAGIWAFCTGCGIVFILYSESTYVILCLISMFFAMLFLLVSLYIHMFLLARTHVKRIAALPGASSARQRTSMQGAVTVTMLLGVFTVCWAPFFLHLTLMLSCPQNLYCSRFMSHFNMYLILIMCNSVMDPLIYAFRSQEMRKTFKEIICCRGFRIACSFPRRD

SMILES | EC50 (MC4-R [1]) [nM] | inhibition at 1 µM (MC1-R; 1 μM test compound) [%] | inhibition at 1 µM (MC3-R; 1 μM test compound) [%] | inhibition at 1 µM (MC5-R; 1 μM test compound) [%] | inhibition at 1 µM (MC4-R [5]; 1 μM test compound) [%] | Ki (MC4-R [5]) [nM] | EC50 (MC4-R [4]) [nM] | further results
C[C@H](NC(=O)[C@H](CCCNC(=N)N)NC(=O)[C@@H](Cc1ccc(Cl)cc1)NC(=O)[C@H](COCc1ccccc1)NC(=O)CCCCCCN)c1cccc2ccccc12 [Example 16, 7′-amino-heptanoyl-Ser(Bzl)-D-Phe(4-Cl)-Arg-S-(−)-1-(1-naphthyl)ethylamide] | 180 | – | – | – | – | – | – | –
N=C(N)NCCC[C@H](NC(=O)[C@@H](Cc1ccc(Cl)cc1)NC(=O)C1(NC(=O)Cc2ccc3ccccc3c2)CCCCC1)C(=O)N[C@@H](Cc1c[nH]c2ccccc12)C(N)=O [Example 24, 2-naphthylacetyl-1-amino-1-cyclohexane-carbonyl-D-Phe(4-Cl)-Arg-Trp-NH2] ({Acetyl(2-naphthyl)}-[Ac6c][dPhe(4-Cl)]RW-NH2) | – | – | – | – | – | – | – | decrease in body weight [2]: 1%; decrease in food intake [2]: 21%; intrinsic activity at MC4-R in a normal system (MC4-R [3]; normal receptor density system, NDP-α-MSH = 1.0): 0.2; functional status at MC4-R in cAMP assay (MC4-R [3]; normal system, 1 μM concentration where stated): partial agonist (intrinsic activity between 0.1 (10%) and 0.7 (70%) is classified as a partial agonist); Efficacy/Intrinsic Activity (MC4-R [4]; 0.1 ng/mL doxycycline, low receptor density hMC4-R system, NDP-α-MSH maximal cAMP = 1.0): None; Efficacy/Intrinsic Activity (MC4-R [1]; 10 ng/mL doxycycline, high receptor density hMC4-R system, NDP-α-MSH maximal cAMP = 1.0): None
CNC(=O)[C@@H]1CCCCNC(=O)C[C@H](NC(C)=O)C(=O)N[C@@H](Cc2c[nH]c3ccccc23)C(=O)N[C@H](Cc2ccc3ccccc3c2)C(=O)N[C@@H](CCCNC(=N)N)C(=O)N[C@@H](Cc2ccc3ccccc3c2)C(=O)N1 [Example 35, Ac-cyclo(Asp-Trp-D-Nal 2-Arg-Nal 2-Lys)-NH—CH3] (Ac-DW[d2Nal]R[2Nal]K-NHMe; lactam 1-6) | – | – | – | – | – | – | – | inhibition at 1 µM (MC1-R): 67%; inhibition at 1 µM (MC3-R): 99%; inhibition at 1 µM (MC5-R): 98%; functional status at MC4-R in cAMP assay (MC4-R [3]; at 1 nM dose): inactive; inhibition at 1 µM (MC4-R [5]): 100%
CCCC[C@H](NC(C)=O)C(=O)N[C@H]1CC(=O)NCCCC[C@@H](C(=O)N(C)C)NC(=O)[C@H](Cc2cccc3ccccc23)NC(=O)[C@H](CCCNC(=N)N)NC(=O)[C@@H](Cc2ccccc2)NC(=O)[C@H](Cc2c[nH]c3ccccc23)NC1=O [Example 36, Ac-Nle-cyclo(-Asp-Trp-D-Phe-Arg-Nal 1-Lys)-N(CH3)2] (Ac-[Nle]DW[dF]R[1Nal]K-NMe2; lactam 2-7) | 4 | 71 | 83 | 92 | 99 | 38 | – | –
CCCC[C@H](NC(C)=O)C(=O)N[C@H]1CC(=O)NCCCC[C@@H](C(=O)N(C)C)NC(=O)[C@H](Cc2cccc3ccccc23)NC(=O)[C@H](CCCNC(=N)N)NC(=O)[C@@H](Cc2ccccc2)NC(=O)[C@H](Cc2c[nH]cn2)NC1=O [Example 37, Ac-Nle-cyclo(-Asp-His-D-Phe-Arg-Nal 1-Lys)-N(CH3)2] | 0.6 | 82 | 92 | 92 | 100 | 5 | 2.1 | –
CCCC[C@H](NC(C)=O)C(=O)N[C@H]1CC(=O)NCCCC[C@@H](C(=O)NCC)NC(=O)[C@H](Cc2cccc3ccccc23)NC(=O)[C@H](CCCNC(=N)N)NC(=O)[C@@H](Cc2ccccc2)NC(=O)[C@H](Cc2c[nH]c3ccccc23)NC1=O [Example 38, Ac-Nle-cyclo(-Asp-Trp-D-Phe-Arg-Nal 1-Lys)-NH—CH2—CH3] (Ac-[Nle]DW[dF]R[1Nal]K-NHEt; lactam 2-7) | 10 | 98 | 92 | 92 | 100 | 9 | – | –
CCCC[C@H](NC(C)=O)C(=O)N[C@H]1CC(=O)NCCCC[C@@H](C(=O)NCC)NC(=O)[C@H](Cc2cccc3ccccc23)NC(=O)[C@H](CCCNC(=N)N)NC(=O)[C@@H](Cc2ccccc2)NC(=O)[C@H](Cc2c[nH]cn2)NC1=O [Example 39, Ac-Nle-cyclo(-Asp-His-D-Phe-Arg-Nal 1-Lys)-NH—CH2—CH3] | 1.1 | 100 | 93 | 93 | 98 | 2 | 10 | –
CCNC(=O)[C@@H]1CCCCNC(=O)C[C@H](NC(C)=O)C(=O)N[C@@H](Cc2c[nH]cn2)C(=O)N[C@H](Cc2ccccc2)C(=O)N[C@@H](CCCNC(=N)N)C(=O)N[C@@H](Cc2c[nH]c3ccccc23)C(=O)N1 [Example 40, Ac-cyclo(-Asp-His-D-Phe-Arg-Trp-Lys)-NH—CH2—CH3] | 0.5 | 96 | 65 | 16 | 96 | 6 | 3.1 | Ki (MC5-R; read-out: Ki (nM) (NDP-α-MSH) In Normal System, MC5-R): > 1000 nM; EC50 (MC4-R [3]; normal receptor density system): 3 nM
CCCC[C@H](NC(C)=O)C(=O)N[C@H]1CC(=O)NCCCC[C@@H](C(=O)O)NC(=O)[C@H](Cc2c[nH]c3ccccc23)NC(=O)[C@H](CCCNC(=N)N)NC(=O)[C@@H](Cc2ccccc2)NC(=O)[C@H](Cc2c[nH]cn2)NC1=O [PT-141, cyclo 2,7[Ac-Nle-Asp-His-D-Phe-Arg-Trp-Lys]-OH, reference compound] | – | – | – | – | – | – | – | Penile Erection ICV ([6]; ICV): Yes**; Penile Erection IV ([6]; IV): Yes**
